Measurements: patent publication US11771717B2, “Applications of pair-production for improved radiotherapy” (Henry Ford Health System, priority 2017, dated 2023)
Read-outs that look alike come from different tables or passages of the source.

Tested on: A549 human lung cancer cells
Conditions: for decreased clonogenic survival at 18 MV compared to 6 MV: Example 2 conclusion; for more cell killing at 18 MV vs 6 MV: Example 3 conclusion; for increased cell killing at 18 MV compared to 6 MV, on average: cisplatin 4 μg/ml, carboplatin 12 μg/ml (FIG. 4); for cell survival decreased using 18 MV photons compared to 6 MV photons, average of 3 experiments: FIG. 2 and FIG. 4, 2 hours before irradiation with 2 Gy, 100 μM sodium phosphotungstate, 4 μg/ml cisplatin, 12 μg/ml carboplatin
Method: Detailed Methods: The human lung cancer cell line A549 was maintained in tissue culture using standard techniques. A 70% confluent T25 tissue culture flask of A549 in exponential growth phase was trypsinized with 2 mL of 0.05% trypsin solution and deactivated with 3 mL DMEM to produce a 5 mL single cell-suspension. One milliliter of this cell solution was added to 10 mL of DMEM and vortexed to produce a homogenous diluted single cell suspension. Seven 6-well tissue culture plates were prepared with 3 mL of DMEM per well. […] These plates were incubated at 37° C. for 24 hours to allow the cells to settle and the tissue culture wells. The media was then removed from each plate and replaced with: DMEM in 3 plates as non-metal controls (250 cells per well), 100 μM sodium phosphotungstate hydrate DMEM in 2 plates (250 cells per well), 1 mM sodium tungstate dihydrate DMEM in 2 plates (250 cells per well), and 4 μg/mL cisplatin DMEM in 2 plates (1000 cells per well). The media with or without metal compounds was left in the wells to incubate for 1-2 hours prior to irradiation. Six plates were irradiated using a linear accelerator (Varian Trilogy; Varian Corp., Palo Alto, Calif.): one plate each of the DMEM, sodium phosphotungstate hydrate, sodium tungstate dihydrate, and cisplatin were given 209 MU of 6 MV X-rays (2 Gy) and the remaining plates of DMEM, sodium phosphotungstate hydrate, sodium tungstate dihydrate, and cisplatin were irradiated with 239 MU of 18 MV X-rays (2 Gy). The remaining seventh plate was not irradiated and used to calculate plating efficiency of A549. The seven plates then had all media replaced with normal DMEM immediately following irradiation and were incubated for 10 days. When A549 colonies were seen to be equal to or greater than 50 cells by microscopy, the seven plates were stained with crystal violet and counted. The same experiment above was conducted for A549 cells in DMEM media alone with administration of sodium phosphotungstate hydrate after irradiation. Two identical plates were prepared as described above and these were irradiated at 6 or 18 MV in DMEM. The media was removed after irradiation and replaced with 100 μM sodium phosphotungstate hydrate media for one hour before again being replaced with DMEM and incubated for 10 days.
A549 lung cancer cells were used to create nine 6-well plates under standard methods. The media was then removed from each plate and replaced with: DMEM in 3 plates as non-metal controls (250 cells per well), 100 μM sodium phosphotungstate hydrate DMEM in 2 plates (250 cells per well), 12 μg/ml carboplatin DMEM in 2 plates (1000 cells per well), and 4 μg/ml cisplatin DMEM in 2 plates (1000 cells per well) and incubated for 2-4 hours prior to irradiation. Eight plates were irradiated on a linear accelerator: one plate each of the DMEM, tungsten, carboplatin, and cisplatin was given 2 Gy of 6 MV X-rays and one of each was irradiated with 2 Gy of 18 MV X-rays. The remaining plate was not irradiated and used to calculate plating efficiency of A549. The nine plates were incubated for 10 days, stained with crystal violet, and colonies were counted.
In vitro studies were conducted with the A549 cell line, a human lung adenocarcinoma cultured from the tumor of a person by Giard in 1972. Clonogenic survival studies were done without irradiation or metal compound to measure plating efficiency. Cells were then exposed to 100 μM tungsten compound for 4 hours and seeded into 6 well plates. […] 4 identical plates of cells were then created, 2 containing 100 μM tungsten metal and 2 without metal.

[1] = Example 2, 2 Gy of 6 MV X-rays, compound in media 1-2 hours prior to irradiation (100 μM sodium phosphotungstate hydrate, 1 mM sodium tungstate dihydrate, 4 μg/mL cisplatin)
[2] = Example 2, 2 Gy of 18 MV X-rays, compound in media 1-2 hours prior to irradiation (100 μM sodium phosphotungstate hydrate, 1 mM sodium tungstate dihydrate, 4 μg/mL cisplatin)
[3] = Example 3, 2 Gy of 6 MV X-rays, incubated 2-4 hours prior to irradiation (100 μM tungsten, 4 μg/ml cisplatin, 12 μg/ml carboplatin)
[4] = Example 3, 2 Gy of 18 MV X-rays, incubated 2-4 hours prior to irradiation (100 μM tungsten, 4 μg/ml cisplatin, 12 μg/ml carboplatin)

Work on N.N.[Cl][Pt][Cl] [cisplatin, reference compound] yielded an average colonies [1] of 54 colonies, a survival [1] of 13% and an average colonies [2] of 29 colonies. For the same compound, the survival [2] was 7%, the “18 MV result compared to 6 MV, in words” value (Example 2, 18 MV vs 6 MV, 2 Gy) was “half of that at 6 MV” and the “decreased clonogenic survival at 18 MV compared to 6 MV” value (“decreased clonogenic survival at 18 MV” for short) (2 Gy) was “approximately 50%”. The colonies/well [3] was 54 colonies/well, the survival [3] was 13% and the colonies/well [4] was 29 colonies/well. For the same compound, the survival [4] was 7%, the “more cell killing at 18 MV vs 6 MV” value (2 Gy) was 37% and the “increased cell killing at 18 MV compared to 6 MV, on average” value (Example 4) was “approximately 37%”. For the same compound, the “cell survival decreased using 18 MV photons compared to 6 MV photons, average of 3 experiments” value (“cell survival decreased” for short) was “approximately 37%”.

For O.O.[Na+].[Na+].[O]=[W](=[O])([O-])[O-] [sodium tungstate dihydrate], the average colonies [1] was 70 colonies, the survival [1] was 68% and the average colonies [2] was 21 colonies. The survival [2] was 20%, the “more cell killing compared to 6 MV” value (Example 2, 18 MV vs 6 MV, 2 Gy, 1 mM) was “approximately 70%” and the “decreased clonogenic survival at 18 MV” value (2 Gy) was roughly 70%.

For sodium phosphotungstate hydrate, the “survival after drug administration without irradiation” value (100 μM for 4 hours, no irradiation) was “greater than 95%”, the “cell killing, plates exposed to tungsten after irradiation” value (Example 2, 100 μM for one hour after irradiation, at either 6 or 18 MV) was “approximately 65%” and the average colonies [1] was 68 colonies. The survival [1] was 66%, the average colonies [2] was 35 colonies and the survival [2] was 34%. For the same compound, the “18 MV result compared to 6 MV, in words” value (Example 2, 18 MV vs 6 MV, 2 Gy) was “double cell kill”, the “decreased clonogenic survival at 18 MV” value (2 Gy) was “approximately 50%” and the colonies/well [3] was 68 colonies/well. For the same compound, the survival [3] was 66%, the colonies/well [4] was 35 colonies/well and the survival [4] was 34%. For the same compound, the “more cell killing at 18 MV vs 6 MV” value (2 Gy) was “approximately 50%”, the “more cell killing compared to 6 MV with or without metal and 18 MV without metal” value (Example 4, 100 μM, 2 Gy of 18 MV photons) was “approximately 50%” and the “cell survival decreased” value was 48%.

In the case of N.N.O=C([O-])C1(C(=O)[O-])CCC1.[Pt+2] [carboplatin, reference compound], the colonies/well [3] was 64 colonies/well, the survival [3] was 16% and the colonies/well [4] was 40 colonies/well. For the same compound, the survival [4] was 10%, the “more cell killing at 18 MV vs 6 MV” value (2 Gy) was 37% and the “increased cell killing at 18 MV compared to 6 MV, on average” value (Example 4) was “approximately 37%”. For the same compound, the “cell survival decreased” value was “approximately 37%”.
